Counter-ions that a name gives are not always drawn.
Test system: compound 48/80-induced lethality in rats
Experiment: Protection of rats from compound 48/80-induced lethality
Assay type: in vivo, rat (male, inbred Wistar strain)
Conditions: Rattus norvegicus; test compound subcutaneously or orally (route of each value not given) 1 hour before compound 48/80 0.5 mg/kg intravenously; dose protecting 50% of animals, survival after 4 hours; read-out: Compound 48/80 lethality test in rats-ED50
From the text: PROTECTION OF RATS FROM COMPOUND 48/80-INDUCED LETHALITY
Compound 48/80, a mixture of oligomers obtained by condensation of 4-methoxy-N-methylbenzeneethanamine and formaldehyde has been described as a potent histamine releasing agent (Int. Arch. Allergy, 13, 336 (1958)). The protection from compound 48/80-induced lethal circulatory collapse appears to be a simple way of evaluating quantitatively the antihistaminic activity of test compounds. Male rats of an inbred Wistar strain, weighing 240-260 g were used in the experiment. After overnight starvation the rats were transferred to conditioned laboratories (temp.=21±1° C., relative humidity=65±5%). The rats were treated subcutaneously or orally with a test compound or with the solvent (NaCl solution, 0.9%). One hour after treatment there was injected intravenously compound 48/80, freshly dissolved in water, at a dose of 0.5 mg/kg (0.2 ml/100 g of body weight). In control experiments, wherein 250 solvent-treated animals were injected with the standard dose of compound 48/80, not more than 2.8% of the animals survived after 4 hours. Survival after 4 hours is therefore considered to be a safe criterion of a protective effect of drug administration.
Said ED50 -values are the values in mg/kg body weight at which the tested compounds protect 50% of the tested animals against compound 48/80-induced lethality.

## COc1ccc(CCN2CCC(Nc3nc4ccccc4n3Cc3cscn3)CC2)cc1 [Compound 17, N-[1-[2-(4-methoxyphenyl)ethyl]-4-piperidinyl]-1-(4-thiazolyl)-methyl)-1H-benzimidazol-2-amine dihydrobromide. dihydrate]
  ED50: 0.08 mg/kg

## C=COCCN1CCC(Nc2nc3ccccc3n2Cc2ccc(F)cc2)CC1 [Compound 1, N-[1-[2-(ethenyloxy)ethyl]-4-piperidinyl]-1-(4-fluorophenylmethyl)-1H-benzimidazol-2-amine]
  ED50: 0.08 mg/kg

## Cc1nccn1CCN1CCC(Nc2nc3ccccc3n2Cc2ccc(F)cc2)CC1 [Compound 20, 1-[(4-fluorophenyl)methyl]-N-[1-[2-(2-methyl-1H-imidazol-1-yl)ethyl]-4-piperidinyl]-1H-benzimidazol-2-amine]
  ED50: 0.31 mg/kg

## O=c1oc2ccccc2cc1CCN1CCC(Nc2nc3ccccc3n2Cc2cscn2)CC1 [Compound 6, 3-[2-[4-[[1-(4-thiazolylmethyl)-1H-benzimidazol-2-yl]amino]-1-piperidinyl]ethyl]-2H-1-benzopyran-2-one dihydrochloride.sesquihydrate]
  ED50: 0.16 mg/kg

## CN(C)C(=S)NCCN1CCC(Nc2nc3ccccc3n2Cc2ccc(F)cc2)CC1 [Compound 31]
  ED50: 0.08 mg/kg

## CNC(=O)Nc1ccc(CCN2CCC(Nc3nc4ccccc4n3Cc3ccc(F)cc3)CC2)cc1 [Compound 57, N-[4-[2-[4-[[1-[(4-fluorophenyl)methyl]-1H-benzimidazol-2-yl]amino]-1-piperidinyl]ethyl]phenyl]-N'methylurea]
  ED50: 0.08 mg/kg

## CCN(C(C)=O)c1ccccc1C(=O)NCCN1CCC(Nc2nc3ccccc3n2Cc2ccc(F)cc2)CC1 [Compound 52, 2-(acetylethylamino)-N-[2-[4-[[(1-[(4-fluorophenyl)methyl]-1H-benzimidazol-2yl]amino]-1-piperidinyl]ethyl]benzamide (E) -2-butenedioate(1:2)]
  ED50: 0.31 mg/kg

## O.O=c1oc2ccccc2cc1CCN1CCC(Nc2nc3ccccc3n2Cc2cccnc2)CC1 [Compound 10, 3-[2-[4-[[1-(3-pyridinylmethyl)-1H-benzimidazol-2-yl]amino]-1-piperidinyl]ethyl]-2H-1-benzopyran-2-one monohydrate]
  ED50: 0.31 mg/kg

— patent publication US4588722A, “N-(4-piperidinyl) bicyclic condensed 2-imidazolamine derivatives” (priority 1984, dated 1986)
